# PMC11938129, “Gravacin as an inhibitor of the auxin transport-activating protein kinase D6PK in Arabidopsis” (Frontiers in Plant Science, 2025)
# Columns and labels:
# D6PK (His-D6PK) [1] = target: T1, D6PK (His-D6PK) (Arabidopsis thaliana, UniProt Q9FG74); experiment: surface plasmon resonance (Biacore 8K), steady state affinity model; format: binding
# T1 construct: His-tagged recombinant D6PK, expressed in E. coli BL21 (DE3), Ni-NTA purified
# T1 sequence (Q9FG74 1-498): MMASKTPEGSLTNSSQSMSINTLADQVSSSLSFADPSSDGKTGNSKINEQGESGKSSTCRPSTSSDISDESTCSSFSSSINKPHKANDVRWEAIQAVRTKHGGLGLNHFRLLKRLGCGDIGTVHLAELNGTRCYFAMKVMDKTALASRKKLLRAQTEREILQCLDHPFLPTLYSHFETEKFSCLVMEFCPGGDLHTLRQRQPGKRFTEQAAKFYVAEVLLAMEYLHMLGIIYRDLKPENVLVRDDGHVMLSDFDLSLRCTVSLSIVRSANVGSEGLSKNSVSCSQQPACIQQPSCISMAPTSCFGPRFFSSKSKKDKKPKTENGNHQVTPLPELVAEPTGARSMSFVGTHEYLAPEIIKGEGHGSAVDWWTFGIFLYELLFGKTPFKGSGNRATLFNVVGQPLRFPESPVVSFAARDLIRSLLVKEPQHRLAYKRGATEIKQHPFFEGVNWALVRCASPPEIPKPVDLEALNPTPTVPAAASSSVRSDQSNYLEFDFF
# D6PK (His-D6PK) [2] = target: T1, D6PK (His-D6PK); experiment: in vitro kinase assay, […]ATP autoradiography of His-PIN1-HL phosphorylation; format: biochemical; settings: partial, dose-dependent inhibition; substrate His-PIN1-HL; 10 mM ATP (so in the source), 10 mM MgCl2, 1 mM DTT, Tris-HCl pH 7.5, 25 °C, 60 min
structure (smiles),measurement,setting,value
"O=C(O)C=Cc1ccc(-c2ccc(Cl)c(Cl)c2)o1 [gravacin, 3-(5-[3,4-dichlorophenyl]-2-furyl)-acrylic acid]",Kd,D6PK (His-D6PK) [1],~334 µM
same,"in vitro kinase assay, [32P]ATP autoradiography of His-PIN1-HL phosphorylation",D6PK (His-D6PK) [2],His-D6PK-induced phosphorylation of His-PIN1 was partially suppressed by gravacin in a dose-dependent manner
